# Experimental data reported in patent US10207991B2, “Isoindoline compositions and methods for treating neurodegenerative disease” (priority 2014, dated 2019).
# Experiment: Mouse liver microsome (MLM) stability
# Type: in vitro ADME
# Description: A first pharmacokinetic study was performed in microsomes of mice mouse liver microsomes, MLM) by a commercial contract research organization. The studies were performed according to Obach, R. S et al. (1997) J. Pharmacol. Exp. Ther., 283: 46-58, which is incorporated herein by reference.
row,SMILES,"Mouse liver microsomes, MLM t½"
1,C[C@H](CCc1ccc(O)c(OC(C)(C)C)c1)N1Cc2c(F)ccc(F)c2C1 [60A],5 min
2,C[C@H](CCc1ccc(O)c(OC(C)(C)C)c1)N1Cc2cccc(F)c2C1 [60B],8 min
3,COc1cc(CC[C@@H](C)N2Cc3ccc(Cl)cc3C2)ccc1O [compound 1],11 min
4,COc1cc(CC[C@@H](C)N2Cc3ccc(C(F)(F)F)cc3C2)ccc1O [compound 2],28 min
5,COc1cc(CC[C@@H](C)N2Cc3cc(Cl)c(Cl)cc3C2)ccc1O [compound 3],21 min
6,C[C@H](CCc1ccc(Cl)c(Cl)c1)N1Cc2ccc(C(F)(F)F)cc2C1 [compound 4],40 min
7,C[C@H](CCc1ccc(Cl)c(Cl)c1)N1Cc2cc(Cl)c(Cl)cc2C1 [compound 5],53 min
8,COc1cc(CC[C@@H](C)N2Cc3cc4c(cc3C2)OCO4)ccc1O [compound 6],20 min
9,COc1cc(CC[C@@H](C)N2Cc3cccc(F)c3C2)ccc1O [compound 8],16 min
10,C[C@H](CCc1ccc(Cl)c(Cl)c1)N1Cc2cccc(F)c2C1 [compound 9],12 min
11,C[C@H](CCc1ccc(Cl)c(Cl)c1)N1Cc2cc3c(cc2C1)OCO3 [compound 10],8 min
12,COc1cc2c(cc1OC)CN([C@H](C)CCc1ccc(Cl)c(Cl)c1)C2 [compound 11],61 min
13,C[C@H](CCc1ccc(Cl)c(Cl)c1)N1Cc2ccc(F)cc2C1.Cl [compound 12],13 min
14,Cc1ccc2c(c1)CN([C@H](C)CCc1ccc(Cl)c(Cl)c1)C2 [compound 13],3 min
15,COc1ccc2c(c1)CN([C@H](C)CCc1ccc(Cl)c(Cl)c1)C2.Cl [compound 15],15 min
16,C[C@H](CCc1ccc(Cl)c(Cl)c1)N1Cc2cccc(Cl)c2C1.Cl [compound 16],12 min
17,COc1cc(CCC(C)N2Cc3ccc4ccccc4c3C2)ccc1O.Cl (stereo not drawn) [compound 17],10 min
18,C[C@H](CCc1ccc(Cl)c(Cl)c1)N1Cc2ccc3ccccc3c2C1 [compound 19],25 min
19,COc1cc2c(cc1OC)CN([C@@H](C)CCc1ccc(Cl)c(Cl)c1)C2 [compound 20],43 min

row,SMILES,"Mouse liver microsomes, MLM t½"
1,C[C@H](CCc1ccc(F)cc1)N1Cc2cccc(F)c2C1 [compound 21],7 min
2,C[C@H](CCc1ccc(F)cc1)N1Cc2ccc(F)cc2C1 [compound 22],7 min
3,C[C@H](CCc1ccc(F)cc1)N1Cc2cc3c(cc2C1)OCO3 [compound 23],5 min
4,C[C@H](CCc1ccc(O)c(OC(F)(F)F)c1)N1Cc2cc3c(cc2C1)OCO3 [compound 24],5 min
5,CC(C)Oc1cc(CC[C@@H](C)N2Cc3cc4c(cc3C2)OCO4)ccc1O [compound 25],4 min
6,CC(C)Oc1cc(CC[C@@H](C)N2Cc3cccc(F)c3C2)ccc1O [compound 26],4 min
7,CC(C)Oc1cc(CCC(C)(C)N2Cc3cccc(F)c3C2)ccc1O [compound 28],4 min
8,CC(C)Oc1cc(CCC(C)(C)N2Cc3cc4c(cc3C2)OCO4)ccc1O [compound 29],6 min
9,C[C@H](CCc1ccc(O)c(OC(F)(F)F)c1)N1Cc2ccc(F)cc2C1 [compound 31],6 min
10,CC(C)(CCc1ccc(F)cc1)N1Cc2cccc(F)c2C1 [compound 33],9 min
11,COc1cc2c(cc1OC)CN(C(C)(C)CCc1ccc(F)cc1)C2 [compound 34],46 min
12,CC(C)(CCc1ccc(F)cc1)N1Cc2ccc(F)cc2C1 [compound 35],9 min
13,CC(C)(CCc1ccc(F)cc1)N1Cc2cc3c(cc2C1)OCO3 [compound 36],47 min
14,CC(C)Oc1cc(CC[C@@H](C)N2Cc3ccc(F)cc3C2)ccc1O [compound 37],5 min
15,CC(C)Oc1ccc(CC[C@@H](C)N2Cc3cc4c(cc3C2)OCO4)cc1OC(C)C [compound 40],6 min
16,C[C@H](CCc1ccc(OC(=O)N(C)C)c(OC(F)(F)F)c1)N1Cc2cccc(F)c2C1 [compound 41],9 min
17,CC(C)Oc1ccc(CCC(C)(C)N2Cc3ccc(F)cc3C2)cc1OC(C)C [compound 42],14 min
18,C[C@H](CCc1ccc(OC(=O)N(C)C)c(OC(F)(F)F)c1)N1Cc2ccc(F)cc2C1 [compound 43],5 min
19,COc1cc(CCC(C)(C)N2Cc3cccc(F)c3C2)ccc1OCCO [compound 44],29 min

row,SMILES,"Mouse liver microsomes, MLM t½"
1,COc1cc(CCC(C)(C)N2Cc3ccc(F)cc3C2)ccc1OCCO [compound 45],96 min
2,COC[C@H](CCc1ccc(Cl)c(Cl)c1)N1Cc2ccc(F)cc2C1 [compound 46],5 min
3,COc1cc(CCC(C)(C)N2Cc3cc4c(cc3C2)OCO4)ccc1OCCO [compound 47],91 min
4,COc1cc(CCC(C)(C)N2Cc3ccc(F)cc3C2)ccc1OC(=O)N(C)C [compound 50],33 min
5,COc1cc(CC[C@@H](C)N2Cc3cccc(F)c3C2)ccc1OCCO [compound 51],66 min
6,COc1cc(CC[C@@H](C)N2Cc3cc4c(cc3C2)OCO4)ccc1OCCO [compound 52],97 min
7,COc1cc(CCC(C)(C)N2Cc3cccc(F)c3C2)ccc1O [compound 53],21 min
8,CC(C)(CCc1ccc(O)c(OC(F)(F)F)c1)N1Cc2cccc(F)c2C1 [compound 54],12 min
9,CC(C)(CCc1ccc(O)c(OC(F)(F)F)c1)N1Cc2c(F)ccc(F)c2C1 [compound 55],34 min
10,CN(C)C(=O)c1cccc2c1CN(C(C)(C)CCc1ccc(O)c(OC(F)(F)F)c1)C2 [compound 57],26 min
11,CN(C)C(=O)c1cccc2c1CN(C(C)(C)CCc1ccc(O)c(OC(C)(C)C)c1)C2 [compound 59],8 min
12,CC(C)(C)Oc1cc(CCC(C)(C)N2Cc3ccc(S(C)(=O)=O)cc3C2)ccc1O [compound 62],45 min
13,C[C@H](CCc1ccc(O)c(OC(C)(C)C)c1)N1Cc2ccc(S(C)(=O)=O)cc2C1 [compound 63],31 min
14,COc1cc(CCC(C)(C)N2Cc3cccc(S(C)(=O)=O)c3C2)ccc1O [compound 64],52 min
15,COc1cc(CC[C@@H](C)N2Cc3cccc(S(C)(=O)=O)c3C2)ccc1O [compound 65],41 min
16,CC(C)(C)Oc1cc(CCC(C)(C)N2Cc3cccc(S(C)(=O)=O)c3C2)ccc1O [compound 66],10 min
17,CC(C)(CCc1ccc(O)c(OC(F)(F)F)c1)N1Cc2cccc(S(C)(=O)=O)c2C1 [compound 67],39 min
18,CC(C)Oc1cc(CC[C@@H](C)N2Cc3ccc(S(C)(=O)=O)cc3C2)ccc1O [compound 69],75 min
19,CC(C)Oc1cc(CCC(C)(C)N2Cc3ccc(S(C)(=O)=O)cc3C2)ccc1O [compound 70],79 min
